Test results from patent US12281117B2, “Small molecule immune agonists and immune targeting compounds and application thereof” (SHENZHEN UNIVERSITY, priority 2018, dated 2025).

How the values were obtained:
spleen lymphocytes = assay: Immunostimulatory effects on spleen lymphocytes, cytokines in supernatant by ELISA; format: cell-based, BALB/c or C57BL/6 mouse; settings: FIG. 59 and FIG. 60; compared with JQ1 plus SZU-101
Experimental: Effect Example 1: Detection of the Immunostimulatory Effects of the SZU-Series Small-Molecule Immune Agonists and Novel Immune Targeted Compounds of the Present Invention on Spleen Lymphocytes
1. Extraction of Spleen Lymphocytes
(1) BALB/c or C57BL/6 mouse spleens were collected, ground in a small dish containing Mouse Lymphocyte Separation Medium, and filtered through a filter membrane (with a pore size of […]) to obtain a cell suspension, which was treated by centrifugation to obtain lymphocytes. The isolated lymphocytes were placed in a 15 mL centrifuge tube, into which 10 mL of 1640 complete medium was added. The mixture was mixed uniformly and centrifuged at 250 g for 10 minutes. The supernatant was discarded.
(2) The cells were re-suspended with 1 mL of erythrocyte lysate. After 1 minute of lysis, 4 mL of 1640 complete medium was added for termination. The tube was centrifuged at 1,000 rpm for 5 minutes. The supernatant was discarded.
(3) The cells were re-suspended with 2 mL of 1640 complete medium, counted, and then seeded into 24-well plates at a density of 1×10^6 cells per well.
2. Preparation of the Samples
The spleen lymphocytes seeded into the 24-well plates were stimulated with different concentrations of the SZU-series small-molecule immune agonists and novel immune targeted compounds. The 24-well plate was transferred into an incubator. […]

[1] = system: CD274 (PD-L1) on B16 cells; assay: Inhibitory activity against CD274 (PD-L1) on B16 cells; format: cell-based; settings: FIG. 61

In the case of `COCCOc1nc(N)c2nc(O)n(Cc3ccc(CNC(=O)CCC(=O)NCCOCCOCCOCCNC(=O)C[C@@H]4N=C(c5ccc(Cl)cc5)c5c(sc(C)c5C)-n5c(C)nnc54)cc3)c2n1` [SZU-119], the “activity of TLR7 agonist for stimulating immune cytokine” value (spleen lymphocytes) is reported as “retains the activity of TLR7 agonist” and the “inhibitory activity against CD274 (PD-L1) on B16 cells” value [1] is reported as “retains the inhibitory activity of JQ1”.
